Legend:
[1] = biological target: T1, UCHL5 (Homo sapiens, UniProt Q9Y5K5); test: HA-UbVS competitive active-site labelling of 19S RP or 26S proteasomes; format: binding; conditions: 19S RP or 26S proteasomes incubated with b-AP15
T1 construct: purchased Boston Biochem E-366 (19S), E-365 (26S)
Description: (§1) The deubiquitinating activity of the proteasome is attributed to the action of three DUBs, UCHL5, USP14 and POH1, all localized within the 19S RP 26-28. Both UCHL5 and USP14 are sensitive to N-ethylmaleimide (NEM), a general inhibitor of cysteine proteases, whereas POH1 is insensitive to inhibition by NEM but sensitive to metal chelators such as N,N,N,N-tetrakis-(2-pyridylmethyl)ethylenediamine (TPEN) (29). […] To identify specifically which DUBs were inhibited by b-AP15 treatment, competitive labelling experiments were performed using hemagglutinin tagged ubiquitin vinylsulphonone (HA-UbVS), an active site directed probe that irreversibly reacts with DUBs of the cysteine class (26).
(§2) For labelling of DUBs in cell lysates sub confluent cells were harvested by trypsinization, washed three times with PBS, and centrifuged at 1500 RPM for 5 min. Cell pellets were lysed with buffer (50 mM HEPES pH 7.4, 250 mM sucrose, 10 mM MgCl2, 2 mM ATP, 1 mM DTT) on ice for 15 min. Debris was removed by centrifugation and 25 μg of protein was labelled with 1 μM HA-UbVS for 30 min at 37° C. Samples were resolved by SDS-PAGE and analyzed by immunoblotting with indicated antibodies.
(§3) 19S RP were pre-treated with DMSO, NEM (10 mM) b-AP15 (50 μM) (FIG. 3a) or TPEN (250 μM) (FIG. 3b) followed by addition of Ub-GFP and immunoblotting with anti-GFP antibodies. […]

[2] = biological target: T2, USP14 (Homo sapiens, UniProt P54578); test: as above; format: binding; conditions: 19S RP or 26S proteasomes incubated with b-AP15
T2 construct: purchased Boston Biochem E-366 (19S), E-365 (26S)
Description: as §1, §2, §3

[3] = system: HCT-116 cells; test: Immunoblot of DNA damage markers (phosphorylated p53, H2AX); format: cell-based
Protocol: The turnover of many cell cycle regulatory proteins is controlled by the UPS including inhibitors of the cyclin-dependent kinases p21 Cip1, p27 Kip1 and the tumor suppressor p53 (4). Treatment with b-AP15 increased their levels in a dose dependent manner.
HCT-116 cells were treated with b-AP15 or doxorubicin (100 nM, as a positive control for genotoxic stress for 18 h) (FIG. 5). Cell lysates were immuno-blotted with antibodies for phosphorylated p53 and histone H2 Ax marker for DNA damage of for total levels of p53 and β-actin as loading controls.

With `C=CC(=O)N1C/C(=C\c2ccc([N+](=O)[O-])cc2)C(=O)/C(=C/c2ccc([N+](=O)[O-])cc2)C1` [b-AP15] the “Ub-VS labelling of UCHL5” value [1] was “abolished Ub-VS labelling”, the “Ub-VS labelling of USP14” value [2] was “abolished Ub-VS labelling” and the “level of DNA damage markers phosphorylated p53 (Ser 15) and H2AX (Ser 139)” value [3] was “no increase was observed”.
